Read-outs that look alike come from different tables or passages of the source. Starred links: 1 amine or outer side, 2 acyl side, 3 side chain; linkers in the order of their positions; H or OH if unused. Non-standard residues stand in square brackets, D forms with d. Residues, ends and D or L forms follow the SMILES beside them. Groups on a side chain read outwards from the residue. *: point of attachment. C20 diacid = O=C(O)CCCCCCCCCCCCCCCCCCC(=O)*; C18 diacid = O=C(O)CCCCCCCCCCCCCCCCC(=O)*; γGlu = O=C(O)[C@H](CCC(=O)[*:2])N[*:1]; NMeI = CC[C@H](C)[C@H](NC)C(=O)O; AEEA = NCCOCCOCC(=O)O

One data set concerns the target T1, human CRHR2b (Homo sapiens, UniProt Q13324).
T1 construct: expressed in transfected cells; host or cells: Chinese Hamster Ovary (CHO) cells, transient transfection
T1 sequence (Q13324 1-438 isoform Q13324-2): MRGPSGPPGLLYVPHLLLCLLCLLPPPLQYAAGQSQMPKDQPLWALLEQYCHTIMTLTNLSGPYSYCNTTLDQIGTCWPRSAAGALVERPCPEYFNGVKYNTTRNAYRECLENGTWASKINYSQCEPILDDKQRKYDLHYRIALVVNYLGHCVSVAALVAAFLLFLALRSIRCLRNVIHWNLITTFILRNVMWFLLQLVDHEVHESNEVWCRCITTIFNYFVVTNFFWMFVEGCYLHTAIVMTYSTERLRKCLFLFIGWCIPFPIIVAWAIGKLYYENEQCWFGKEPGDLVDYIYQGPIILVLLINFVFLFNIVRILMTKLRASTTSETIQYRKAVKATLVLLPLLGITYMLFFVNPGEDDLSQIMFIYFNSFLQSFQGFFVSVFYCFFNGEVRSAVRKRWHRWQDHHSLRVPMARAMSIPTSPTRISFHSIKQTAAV
The experiment in a line: human CRHR2b cell-based cAMP assay. As to conditions: cAMP assay, CHO cells transfected with human CRHR2b; mean ± SEM of runs; read-out: hCRHR2b Average EC50. The gist of the method:
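ED50 values are means ± SEM over several runs, curve-fitted from cAMP in pmol, calibrated against unlabeled-cAMP standards. Detection was HTRF competition, ratio 665/620 nm, after 30 min agonist exposure at 37 °C.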

In another data set the test system is remnant kidney mice. The experiment in a line: Mouse remnant kidney model of hypertensive nephropathy (Example 2, 9 weeks). The class given is in vivo. As to conditions: all groups. The protocol:
A mouse remnant kidney model (“remnant”) involving surgical reduction of ¾ of the entire renal mass is used as a preclinical model of hypertensive renal disease (Kidney Int. 64(1):350-5, (2003)).
Surgical reduction of renal mass (N=40 mice) or sham surgery is performed by Taconic, Inc. in male 129S6 mice at 8-9 weeks of age (obtained by Taconic, Inc.). Randomization into 5 equivalent groups of 8 remnant kidney mice is done at 15 weeks post-surgery by urine albumin to creatinine ratio (ACR) and body weight.
Study duration is 9 weeks. After 2 weeks of dosing, a necropsy is done on all groups except the 144 nmol/kg group of Example 2 which continues to be monitored for ACR for another 7 weeks to determine the durability of the effects of the compound of Example 2 on urine ACR. […]
Body weight is determined at baseline and at termination with a Metler Toledo Balance. […] Serum is analyzed for BUN and creatinine on a Roche Hitachi Modular Analytics P analyzer with reagents from Roche. […]
Urine albumin and creatinine are determined on a Roche Hitachi Modular Analytics P analyzer. Urine creatinine is determined with the Creatinine Plus reagent by Roche. […]
All data are analyzed with JMP v.8.0 software (SAS Institute). […] All other data were evaluated by ANOVA with log transformed data if the data were skewed and a Students unpaired t test. […]

For data set [1] the following is noted: cynomolgus monkey, in vivo, sc, 96.4 nmol/kg.
Experimental: (§1) Plasma concentrations of compounds were determined by LC/MS methods. Each method measured the intact compound; peptide plus linked time extension. For each assay, the compound and an analog, used as an internal standard (IS), were extracted from 100% mouse, rat or monkey plasma (25 μl) using acetonitrile. Two distinct layers were formed upon centrifugation with the compound and the IS located in the supernatant layer. An aliquot of the supernatant (80 μl) was transferred to a Thermo Protein Precipitation Plate with water (150 μl) and formic acid (25 μl) followed by mixing. A final 31% acetonitrile in 10% formic acid sample (10 μl) was loaded onto a Supelco Analytical Discovery BIO Wide Pore C5-3 column (5 cm×1 mm, 3 μm). The column effluent was directed into a Thermo Q-Exactive mass spectrometer for detection and quantitation.
(§2) Male Cynomolgus monkeys were administered a single subcutaneous dose or intravenous dose (96.4 nmol/kg) of a compound described herein in 20 mM Tris-HCl Buffer (pH 7) at a volume of 1 mL/kg. Blood was collected from each animal at 2, 6, 24, 48, 72, 96, 168, 240, 336, 408, and 504 hours postdose for pharmacokinetic characterization.
(§3) Male Cynomolgus monkeys were also administered a single subcutaneous dose (50 nmol/kg) of a compound described herein in 20 mM Tris-HCl Buffer (pH 8) at a volume of 0.26 mL/kg. Blood was collected from each animal at 3, 6, 12, 24, 48, 72, 96, 120, 168, 192, 240, 336, 408, and 504 hours postdose for pharmacokinetic characterization.
The conditions of data set [2]: cynomolgus monkey, in vivo, iv, 96.4 nmol/kg, T1/2.
Experimental: Plasma concentrations of compounds were determined by LC/MS methods. Each method measured the intact compound; peptide plus linked time extension. […] Two distinct layers were formed upon centrifugation with the compound and the IS located in the supernatant layer. An aliquot of the supernatant (80 μl) was transferred to a Thermo Protein Precipitation Plate with water (150 μl) and formic acid (25 μl) followed by mixing. A final 31% acetonitrile in 10% formic acid sample (10 μl) was loaded onto a Supelco Analytical Discovery BIO Wide Pore C5-3 column (5 cm×1 mm, 3 μm). The column effluent was directed into a Thermo Q-Exactive mass spectrometer for detection and quantitation.
as §2
The conditions of data set [3]: mouse, in vivo, sc, 386 nmol/kg.
Experimental: as §1
(§4) Male CD-1 mice were administered a single subcutaneous dose (350, 386 or 388 nmol/kg) of a compound described herein in 20 mM Tris-HCl Tris Buffer (pH 7 or 8) at a volume of 0.05 or 0.06 mL/animal. Blood was collected at 6, 12, 24, 48, 72, 96, 120 and 168 hours postdose for pharmacokinetic characterization (101).
A short description of data set [4]: in vivo. As to conditions: male, cynomolgus monkey, sc, 50 nmol/kg.
Experimental: as §1, §2, §3
Data set [5] in a line: in vivo. To be noted: male, CD-1, mouse, sc, 350 nmol/kg.
Experimental: as §1, §4

Turning to `CC[C@H](C)[C@H](NC(C)=O)C(=O)N[C@H](C(=O)N[C@@H](CC(C)C)C(=O)N[C@@H](CO)C(=O)N[C@@H](CC(C)C)C(=O)N[C@@H](CC(=O)O)C(=O)N[C@H](C(=O)N1CCC[C@H]1C(=O)N[C@H](C(=O)NCC(=O)N[C@@H](CC(C)C)C(=O)N[C@@H](CC(C)C)C(=O)N[C@@H](CCC(N)=O)C(=O)N[C@H](C(=O)N[C@@H](CC(C)C)C(=O)N[C@@H](CC(C)C)C(=O)N[C@@H](CCC(=O)O)C(=O)N[C@@H](CCC(N)=O)C(=O)N[C@@H](CCC(=O)O)C(=O)N[C@@H](CCCCN)C(=O)N[C@@H](CCC(N)=O)C(=O)N[C@@H](CCC(=O)O)C(=O)N[C@@H](CCCCN)C(=O)N[C@@H](CCC(=O)O)C(=O)N[C@@H](CCCCN)C(=O)N[C@@H](CCC(N)=O)C(=O)N[C@@H](CCC(N)=O)C(=O)N[C@@H](C)C(=O)N[C@@H](CCCCNC(=O)COCCOCCNC(=O)COCCOCCNC(=O)CC[C@H](NC(=O)CC[C@H](NC(=O)CCCCCCCCCCCCCCCCCCC(=O)O)C(=O)O)C(=O)O)C(=O)N[C@H](C(=O)N[C@@H](CC(N)=O)C(=O)N[C@@H](C)C(=O)N[C@@H](CCC(N)=O)C(=O)N[C@H](C(=O)N[C@@H](CC(C)C)C(=O)N[C@@H](C)C(=O)N[C@@H](CCC(N)=O)C(=O)N[C@H](C(N)=O)C(C)C)[C@@H](C)CC)[C@@H](C)O)[C@@H](C)CC)[C@@H](C)CC)C(C)C)C(C)C` [Example 2] (Ac-IVLSLDVPIGLLQILLEQEKQEKEKQQAK([AEEA-AEEA-γGlu-γGlu-C20 diacid])TNAQILAQV-NH2), the EC50 on human CRHR2b was found to be 1.2 ± 0.52 nM. Further, the “deaths during the study” value with remnant kidney mice was “no deaths”. Also, the CL/F in data set [1] (CL/F) is 0.41 mL/h/kg; in data set [3], 8.3 mL/h/kg. Further, the half-life in data set [1] (T1/2) was 97 h; in data set [2], 124 h; in data set [3], 20 h.

Turning to `CC[C@H](C)[C@H](NC)C(=O)N[C@H](C(=O)N[C@@H](CC(C)C)C(=O)N[C@@H](CO)C(=O)N[C@@H](CC(C)C)C(=O)N[C@@H](CC(=O)O)C(=O)N[C@H](C(=O)N1CCC[C@H]1C(=O)N[C@H](C(=O)NCC(=O)N[C@@H](CC(C)C)C(=O)N[C@@H](CC(C)C)C(=O)N[C@@H](CCC(N)=O)C(=O)N[C@H](C(=O)N[C@@H](CC(C)C)C(=O)N[C@@H](CC(C)C)C(=O)N[C@@H](CCC(=O)O)C(=O)N[C@@H](CCC(N)=O)C(=O)N[C@@H](CCC(=O)O)C(=O)N[C@@H](CCCCN)C(=O)N[C@@H](CCC(N)=O)C(=O)N[C@@H](CCC(=O)O)C(=O)N[C@@H](CCCCN)C(=O)N[C@@H](CCC(=O)O)C(=O)N[C@@H](CCCCN)C(=O)N[C@@H](CCC(N)=O)C(=O)N[C@@H](CCC(N)=O)C(=O)N[C@@H](C)C(=O)N[C@@H](CCCCNC(=O)COCCOCCNC(=O)COCCOCCNC(=O)CC[C@H](NC(=O)CC[C@H](NC(=O)CCCCCCCCCCCCCCCCC(=O)O)C(=O)O)C(=O)O)C(=O)N[C@H](C(=O)N[C@@H](CC(N)=O)C(=O)N[C@@H](C)C(=O)N[C@@H](CCC(N)=O)C(=O)N[C@H](C(=O)N[C@@H](CC(C)C)C(=O)N[C@@H](C)C(=O)N[C@@H](CCC(N)=O)C(=O)N[C@H](C(N)=O)C(C)C)[C@@H](C)CC)[C@@H](C)O)[C@@H](C)CC)[C@@H](C)CC)C(C)C)C(C)C` [Example 3] (H-[NMeI]VLSLDVPIGLLQILLEQEKQEKEKQQAK([AEEA-AEEA-γGlu-γGlu-C18 diacid])TNAQILAQV-NH2), the EC50 on human CRHR2b is 2 ± 1.11 nM.

As to `CC[C@H](C)[C@H](NC)C(=O)N[C@H](C(=O)N[C@@H](CC(C)C)C(=O)N[C@@H](CO)C(=O)N[C@@H](CC(C)C)C(=O)N[C@@H](CC(=O)O)C(=O)N[C@H](C(=O)N1CCC[C@H]1C(=O)N[C@H](C(=O)NCC(=O)N[C@@H](CC(C)C)C(=O)N[C@@H](CC(C)C)C(=O)N[C@@H](CCC(N)=O)C(=O)N[C@H](C(=O)N[C@@H](CC(C)C)C(=O)N[C@@H](CC(C)C)C(=O)N[C@@H](CCC(=O)O)C(=O)N[C@@H](CCC(N)=O)C(=O)N[C@@H](CCC(=O)O)C(=O)N[C@@H](CCCCN)C(=O)N[C@@H](CCC(N)=O)C(=O)N[C@@H](CCC(=O)O)C(=O)N[C@@H](CCCCN)C(=O)N[C@@H](CCC(=O)O)C(=O)N[C@@H](CCCCN)C(=O)N[C@@H](CCC(N)=O)C(=O)N[C@@H](CCC(N)=O)C(=O)N[C@@H](C)C(=O)N[C@@H](CCCCNC(=O)COCCOCCNC(=O)COCCOCCNC(=O)CC[C@H](NC(=O)CC[C@H](NC(=O)CCCCCCCCCCCCCCCCCCC(=O)O)C(=O)O)C(=O)O)C(=O)N[C@H](C(=O)N[C@@H](CC(N)=O)C(=O)N[C@@H](C)C(=O)N[C@@H](CCC(N)=O)C(=O)N[C@H](C(=O)N[C@@H](CC(C)C)C(=O)N[C@@H](C)C(=O)N[C@@H](CCC(N)=O)C(=O)N[C@H](C(N)=O)C(C)C)[C@@H](C)CC)[C@@H](C)O)[C@@H](C)CC)[C@@H](C)CC)C(C)C)C(C)C` [Example 4] (H-[NMeI]VLSLDVPIGLLQILLEQEKQEKEKQQAK([AEEA-AEEA-γGlu-γGlu-C20 diacid])TNAQILAQV-NH2), the EC50 at human CRHR2b worked out at 1.85 ± 0.51 nM. Also, the figures for the CL/F in “in vivo [4]” (CL/F) and in “in vivo [5]” were 0.97 mL/h/kg and 6.8 mL/h/kg, respectively. The half-life is 79 h in the data set “in vivo [4]” (T1/2) and 18 h in “in vivo [5]”.

Source of the values: patent US10894817B2, “Fatty acid modified urocortin-2 analogs for the treatment of diabetes and chronic kidney disease” (priority 2016, dated 2021).
